From patent US11447470B2, “Pyrimidinone-containing compound, preparation method thereof, pharmaceutical composition and application thereof” (YUNNAN UNIVERSITY, priority 2018, dated 2022)
Where two headings read alike, the source gives them in different places.

What was measured:
HIV-1IIIB = test: Syncytium inhibition experiment, C8166 cells infected with HIV-1IIIB; assay type: cell-based; conditions: Human immunodeficiency virus 1, 72 h; HIV-1IIIB (MOI=0.04) in C8166 cells, syncytium count, three days
Experimental: (§1) C8166 cells infected with HIV-1 were used for determining the anti-HIV biological activity at the cellular level. The specific method was described below.
Syncytium inhibition experiment: 100 μL of C8166 cell suspension (4×10^5/mL) was seeded into each well of 96-well cell culture plates containing 5-fold serial dilutions of the compounds, followed by addition of HIV-1IIIB diluted supernatant (MOI=0.04). Triplicate wells were set for each serial concentration. […] The cells were cultured at 37° C. in a 5% CO2 incubator for three days. The number of the syncytia was counted in five non-overlapping fields of view by using an inverted microscope (100×).

[1] = Cytotoxicity experiment (MTT method) on C8166 cells; assay type: cell-based; conditions: human
Experimental: as §1
Cytotoxicity experiment: The toxicity of the compounds on C8166 cells was determined by MTT method. In 96-well cell culture plates, the compounds were subjected to 5-fold serial dilution and 100 μL of C8166 cell suspension (4×10^5/mL) was added into each well. Triplicate wells were set for each concentration. […] The cells were incubated at 37° C. in a 5% CO2 incubator for three days, followed by the addition of MTT solution into each well, and then the cells were incubated at 37° C. for 4 hours. 10% SDS-50% DMF was added into each well and the cells were incubated at 37° C. in a 5% CO2 incubator overnight. After mixing evenly, the OD values were measured by BIO-TEK ELx800 ELISA instrument (determination wavelength: 570 nm; reference wavelength: 630 nm).

SMILES	EC50 (HIV-1IIIB) [µM]	CC50 at 3 days [1] [µM]	CC50 at 3 days ([1]; C8166 cells, MTT, three days, read-out: CC50) [µM]
CCc1c(CC2CCCCC2)nc(SCc2n[nH]c(-c3ccccc3)c2Cl)[nH]c1=O [Compound I-01]	0.099	–	–
O=c1cc(CC2CCCCC2)nc(SCc2cc(-c3ccccc3)[nH]n2)[nH]1 [Compound I-44]	5.34	–	–
CCc1c(CC2CCCCC2)nc(SCc2cc(-c3ccc(F)c(F)c3)[nH]n2)[nH]c1=O [Compound I-18]	0.162	–	–
CCc1c(CC2CCCCC2)nc(SCc2cc(-c3cccc(C(F)(F)F)c3)[nH]n2)[nH]c1=O [Compound I-26]	0.302	–	–
CCc1c(CC2CCCCC2)nc(SCc2n[nH]c(-c3ccc(F)c(F)c3)c2Cl)[nH]c1=O [Compound I-19]	0.151	–	–
CCc1c(CC2CCCCC2)nc(SCc2cc(-c3ccccn3)[nH]n2)[nH]c1=O [Compound I-34]	0.023	–	–
CCc1c(Cc2ccc3c(c2)OCO3)nc(SCc2n[nH]c(-c3ccccc3)c2Cl)[nH]c1=O [Compound I-72]	0.081	> 200	–
CCc1c(CC2CCCCC2)nc(SCc2cc(-c3cccc(Cl)c3)[nH]n2)[nH]c1=O [Compound I-05]	0.066	–	–
CC(C)c1c(CC2CCCCC2)nc(SCc2n[nH]c(-c3ccc(F)cc3)c2Cl)[nH]c1=O [Compound I-37]	0.006	73	–
CCc1c(Cc2c(Cl)cccc2Cl)nc(SCc2n[nH]c(-c3ccccc3)c2Cl)[nH]c1=O [Compound I-70]	0.092	> 200	–
CCc1c(Cc2cc(F)cc(F)c2)nc(SCc2cc(-c3ccc(F)c(F)c3)[nH]n2)[nH]c1=O [Compound I-61]	0.124	46.4	–
CC(C)c1c(CC2CCCCC2)nc(SCc2cc(-c3ccccc3)[nH]n2)[nH]c1=O [Compound I-35]	0.002	104	–
CCc1c(CC2CCCCC2)nc(SCc2n[nH]c(-c3cccc(Cl)c3)c2Cl)[nH]c1=O [Compound I-06]	0.057	–	–
CCc1c(Cc2ccccc2)nc(SCc2n[nH]c(-c3ccccc3)c2Cl)[nH]c1=O [Compound I-71]	0.051	> 200	–
CCc1c(CC2CCCCC2)nc(SCc2n[nH]c(-c3ccc(F)cc3)c2Cl)[nH]c1=O [Compound I-09]	0.018	–	–
Cc1ccnc2c1NC(=O)c1cccnc1N2C1CC1 [NVP, Nevirapine, reference compound]	0.0584	–	–
CCc1c(CC2CCCCC2)nc(SCc2n[nH]c(-c3ccc(OC)c(Cl)c3)c2Cl)[nH]c1=O [Compound I-11]	0.13	–	–
Cc1c(CC2CCCCC2)nc(SCc2cc(-c3ccc(F)cc3)[nH]n2)[nH]c1=O [Compound I-42]	0.355	–	–
Cc1c(CC2CCCCC2)nc(SCc2n[nH]c(-c3ccc(F)c(F)c3)c2Cl)[nH]c1=O [Compound I-56]	0.587	40.3	–
CCc1c(CC2CCCCC2)nc(SCc2cc(-c3ccc(C)cc3C)[nH]n2)[nH]c1=O [Compound I-29]	0.476	–	–
CCc1c(CC2CCCCC2)nc(SCc2cc[nH]n2)[nH]c1=O [Compound I-31]	0.033	–	–
CCc1c(CC2CCCCC2)nc(SCc2cc(-c3ccc(SC)cc3)[nH]n2)[nH]c1=O [Compound I-25]	0.012	–	–
Cc1c(CC2CCCCC2)nc(SCc2cc(-c3ccc(O)cc3)[nH]n2)[nH]c1=O [Compound I-47]	0.142	61.8	–
CCc1c(CC2CCCCC2)nc(SCc2cc(C3CC3)[nH]n2)[nH]c1=O [Compound I-33]	0.025	–	–
CCc1c(Cc2cc(F)cc(F)c2)nc(SCc2n[nH]c(-c3ccc(F)cc3)c2Cl)[nH]c1=O [Compound I-63]	0.063	> 200	–
CCc1c(CC2CCCCC2)nc(SCc2n[nH]c(-c3cccc(F)c3)c2Cl)[nH]c1=O [Compound I-15]	0.071	–	–

SMILES	EC50 (HIV-1IIIB) [µM]	CC50 at 3 days [1] [µM]	CC50 at 3 days ([1]; C8166 cells, MTT, three days, read-out: CC50) [µM]
CC(C)c1c(CC2CCCCC2)nc(SCc2cc(-c3ccc(Cl)cc3)[nH]n2)[nH]c1=O [Compound I-36]	0.009	91.2	–
CCc1c(Cc2c(Cl)cccc2Cl)nc(SCc2cc(-c3ccc(F)cc3)[nH]n2)[nH]c1=O [Compound I-51]	0.602	45.5	–
CCc1c(CC2CCCCC2)nc(SCc2cc(-c3ccc(Cl)c(Cl)c3)[nH]n2)[nH]c1=O [Compound I-12]	0.31	–	–
CCc1c(CC2CCCCC2)nc(SCc2n[nH]c(-c3cccc(C)c3)c2Cl)[nH]c1=O [Compound I-24]	0.086	–	–
CCc1c(CC2CCCCC2)nc(SCc2n[nH]c(-c3cccc(Br)c3)c2Cl)[nH]c1=O [Compound I-04]	0.101	–	–
COc1ccc(-c2cc(CSc3nc(CC4CCCCC4)cc(=O)[nH]3)n[nH]2)cc1 [Compound I-46]	3.96	–	–
CCc1c(CC2CCCCC2)nc(SCc2cc(-c3ccc(C)cc3)[nH]n2)[nH]c1=O [Compound I-21]	0.074	–	82.8
CCc1c(CC2CCCCC2)nc(SCc2cc(-c3ccc(F)cc3)[nH]n2)[nH]c1=O [Compound I-08]	0.02	–	–
CCc1c(CC2CCCCC2)nc(SCc2cc(-c3cccc(F)c3)[nH]n2)[nH]c1=O [Compound I-14]	0.035	–	–
CCc1c(CC2CCCCC2)nc(SCc2n[nH]c(-c3cccc(C(F)(F)F)c3)c2Cl)[nH]c1=O [Compound I-27]	0.182	–	–
CCc1c(Cc2ccc3c(c2)OCO3)nc(SCc2cc(-c3ccc(F)c(F)c3)[nH]n2)[nH]c1=O [Compound I-62]	4.98	> 200	–
Cc1cn([C@H]2C[C@H](N=[N+]=[N-])[C@@H](CO)O2)c(=O)[nH]c1=O [AZT, Zidovudine, reference compound]	0.049	> 749	–
CCc1c(CC2CCCCC2)nc(SCc2cc(C(C)(C)C)[nH]n2)[nH]c1=O [Compound I-30]	0.296	–	–
O=c1cc(CC2CCCCC2)nc(SCc2cc(-c3ccc(F)cc3)[nH]n2)[nH]1 [Compound I-45]	10.1	–	–
CCc1c(CC2CCCCC2)nc(SCc2cc(-c3ccc(F)cc3F)[nH]n2)[nH]c1=O [Compound I-20]	0.042	–	–
CCc1c(CC2CCCCC2)nc(SCc2n[nH]c(-c3ccc(C)cc3)c2Cl)[nH]c1=O [Compound I-22]	0.138	–	–
CCc1c(CC2CCCCC2)nc(SCc2cc(-c3ccccc3)[nH]n2)[nH]c1=O [Compound I-02]	0.007	–	–
Cc1c(CC2CCCCC2)nc(SCc2cc(-c3ccccc3)[nH]n2)[nH]c1=O [Compound I-41]	0.186	–	–
CCc1c(CC2CCCCC2)nc(SCc2cc(-c3ccc(Cl)cc3)[nH]n2)[nH]c1=O [Compound I-07]	0.018	–	–
COc1ccc(-c2cc(CSc3nc(CC4CCCCC4)c(C)c(=O)[nH]3)n[nH]2)cc1 [Compound I-43]	0.194	–	–
CCc1c(CC2CCCCC2)nc(SCc2cc(-c3ccc(O)cc3)[nH]n2)[nH]c1=O [Compound I-17]	0.004	–	–
CCc1c(CC2CCCCC2)nc(SCc2cc(C)[nH]n2)[nH]c1=O [Compound I-32]	0.028	–	–
CCc1c(CC2CCCCC2)nc(SCc2n[nH]c(-c3ccc(Cl)cc3)c2Cl)[nH]c1=O [Compound I-16]	0.089	–	–
CCc1c(CC2CCCCC2)nc(SCc2cc(-c3cccc(Br)c3)[nH]n2)[nH]c1=O [Compound I-03]	0.051	–	–
CCc1c(CC2CCCCC2)nc(SCc2cc(-c3ccc(C(C)C)cc3)[nH]n2)[nH]c1=O [Compound I-28]	0.147	–	–
CCc1c(CC2CCCCC2)nc(SCc2cc(-c3ccc(OC)cc3)[nH]n2)[nH]c1=O [Compound I-10]	0.023	–	–
